Experimental data as given in US10124012B2, “Method for treatment of hyperglycemia and hyperlipidemia” (priority 2016, dated 2018).

Experiments:
[1] = test system: high-fat diet-fed C57BL/6J mouse; assay: Histopathology of epididymal white adipose tissue (adipocyte hypertrophy); type: in vivo, C57BL/6J mice; conditions: mean area of epididymal adipocyte; HF + Feno: fenofibrate 250 mg/kg/day oral gavage 4 weeks, HFD-fed mice
Experimental: (§1) Animal studies were performed and approved under the guidelines of the Institutional Animal Care and Use Committee in Taiwan (12 Mar. 2015). The 4-week old male C57BL/6J mice (total amount n=63) were obtained from the National Laboratory Animal Center (Taipei, Taiwan). After acclimatization for one week, all of the mice were randomly assigned into a control (CON) group and a high-fat diet (HFD) group. For the following 12 weeks, the CON group (n=9) received a control diet or a low-fat diet (Diet 12450B, Research Diets, Inc., New Brunswick, N.J., USA), while the HFD group (n=54) received a high-fat diet (Diet 12451, Research Diets, New Brunswick, N.J., USA). The low-fat diet was composed of protein 20%, carbohydrate 70% and fat 10%, whereas the high-fat diet was composed of protein 20%, carbohydrate 35%, and fat 45% (of total energy, % kcal). After HFD feeding for 8 weeks, the HFD group was randomly subdivided into six groups (n=9 per group) receiving different treatments and fed on HFD. […] The HF+AnK1, HF+AnK2, and HF+AnK3 groups are collectively termed AnK-treated HFD groups in the following examples. The CON mice were administered vehicle. All treatments were administered via oral gavage once daily. After administration for 4 weeks, all mice were fasted 12 hours, and blood was collected from the retro-orbital sinus under ether anesthesia. At the end of the experiment, the mice were sacrificed via carbon dioxide inhalation. Liver, adipose tissue, and skeletal muscle were collected and immediately stored at −80° C. for target gene analysis.
(§2) Parts of visceral adipose and liver specimens were fixed with formalin (200 g/kg) neutral buffered solution and embedded in paraffin. A series of 8 μm-thick sections was cut and stained with hematoxylin and eosin. For microscopic examination, a microscope (Olympus BX51, Olympus, Tokyo, Japan) was used and the images were photographed.
Adipocyte hypertrophy, the pathological enlargement of adipocytes, is often found in subjects with type 2 diabetes and hyperlipidemia. To verify the therapeutic effect of AnK on adipocyte hypertrophy, morphology of the epididymal white adipose tissue from mice of the HF group and the AnK-treated HFD groups was examined. Micrographs (magnification 200X) of the EWAT sections for each group were shown in FIG. 4 and analyzed to determine the mean area of an epididymal adipocyte.

[2] = test system: high-fat diet-fed C57BL/6J mouse; assay: Hepatic lipids in HFD-fed mice; type: in vivo, C57BL/6J mice; conditions: HF + Feno: fenofibrate 250 mg/kg/day oral gavage 4 weeks
Experimental: as §1, with “The 4-week old male C57BL/6J mice (total amount n=63) were obtained from the National Laboratory Animal Center (Taipei, Taiwan).” left out, “The low-fat diet was composed of protein 20%, carbohydrate 70% and fat 10%, whereas the high-fat diet was composed of protein 20%, carbohydrate 35%, and fat 45% (of total energy, % kcal).” left out

[3] = test system: high-fat diet-fed C57BL/6J mouse; assay: Body weight, tissue weights and food intake in HFD-fed mice; type: in vivo, C57BL/6J mice; conditions: HF + Feno: fenofibrate 250 mg/kg/day oral gavage 4 weeks
Excerpt: (§3) The 4-week old male C57BL/6J mice (total amount n=63) were obtained from the National Laboratory Animal Center (Taipei, Taiwan). After acclimatization for one week, all of the mice were randomly assigned into a control (CON) group and a high-fat diet (HFD) group. […] After HFD feeding for 8 weeks, the HFD group was randomly subdivided into six groups (n=9 per group) receiving different treatments and fed on HFD. […] The HF+AnK1, HF+AnK2, and HF+AnK3 groups are collectively termed AnK-treated HFD groups in the following examples. The CON mice were administered vehicle. All treatments were administered via oral gavage once daily. After administration for 4 weeks, all mice were fasted 12 hours, and blood was collected from the retro-orbital sinus under ether anesthesia. At the end of the experiment, the mice were sacrificed via carbon dioxide inhalation. Liver, adipose tissue, and skeletal muscle were collected and immediately stored at −80° C. for target gene analysis.
The metabolic parameters, including body weight, weight gain, and food intake, were performed as the following. Body weight was daily measured at the same time throughout the study. Body weight gain is considered as the weight difference between two consecutive days. The amount of pellet food was weighted, followed by weighting the amount of remaining food after 24 hours. The difference between the two weights is defined as daily food intake.

[4] = test system: membrane GLUT4; assay: Western blotting of skeletal muscular membrane GLUT4 in HFD-fed mice; type: in vivo, C57BL/6J mice; conditions: skeletal muscle, AnK 10, 20, 40, Feno 250, Metf 300 mg/kg/day, as compared with the HF group
Excerpt: as §3
About 0.1 g of liver tissue, skeletal muscle, or adipose tissue was used for the homogenate samples. Samples were powdered under liquid nitrogen and homogenized for 20 seconds in 500 μL buffer containing 20 mM Tris-HCl (pH 7.4 at 4° C.), 2% SDS, 5 mM EDTA, 5 mM EGTA, 1 mM dithiothreitol (DTT), 100 mM NaF, 2 mM sodium vanadate, 0.5 mM phenylmethylsulfonyl fluoride, 10 μg/mL leupeptin, and 10 μL/mL pepstatin. The total membrane fraction was used for measurement. The protein concentration in supernatant was determined with a BCA protein assay kit (Thermo Scientific, Rockford, Ill., USA). […] The membrane was blocked with 5% slim milk in Tris-buffered saline (TBS)(Amersham BioSciences, Uppsala, Sweden) containing 0.05% Tween-20 (Bio Rad, CA, USA) and incubated overnight at 4° C. with antibodies at 1:200 dilution. […] Immunoreactive bands were detected with ECL reagent kit (GE Healthcare BioSciences, Buckinghamshire, UK). The intensity of Western blot signals was analyzed using AlphaEase FC software (Alpha Innotech Corporation, Randburg, South Africa). […]

[5] = test system: high-fat diet-fed C57BL/6J mouse; assay: Histopathology of liver (hepatocellular ballooning); type: in vivo, C57BL/6J mice; conditions: grade 0 absence, 1 few cells, 2 many cells (Table 4); HF + Feno: fenofibrate 250 mg/kg/day oral gavage 4 weeks, HFD-fed mice
Experimental: as §1, §2
On the basis of previous study, the degree of hepatocellular ballooning is defined in TABLE 4: […]

[6] = test system: phospho-AMPK (Thr^172)/total-AMPK; assay: AMPK phosphorylation in C2C12 cells (Western blotting); type: cell-based; conditions: AnK 1, 5, 10 and 25 μg/mL 30 min, insulin 100 nM 25 min, vs CON group
Experimental: (§4) For the in vitro assay, C2C12 skeletal myoblasts (ATCC CRL-1772) were cultured at 37° C. in Dulbecco's modified Eagle's medium (DMEM; Gibco BRL) supplemented with 10% fetal bovine serum (FBS; Hyclone) and 100 U/ml penicillin and 100 μg/ml streptomycin (Gibco BRL), and split 1:4 using 0.05% trypsin at 80% confluency. Myoblasts were diluted and placed in a 9 cm dish. Cells were cultured to achieve 80-90% confluency and refreshed with […] (2% FBS/DMEM) every 24 hours for 5-7 days. The term “confluency” refers to the proportion of the surface of a culture dish that is covered by adherent cells growing in the dish. 100% confluency refers to complete coverage of the surface by the cells.
(§5) Differentiated C2C12 cells were serum-starved in DMEM/BSA at 37° C. for 2 hours prior to incubation with AnK (at 1, 5, 10, and 25 μg/mL) or vehicle (0.2% dimethyl sulfoxide (DMSO) in saline) for 30 min or with 100 nM insulin for 25 min.
(§6) The abovementioned C2C12 cells were then washed three times with phosphate buffered saline (PBS) and divided into two groups. […]
(§7) Protein concentrations were determined via BCA assay (Pierce). […]
(§8) SDS polyacrylamide gel electrophoresis (SDS-PAGE) and Western blotting. Proteins were detected with antibodies specific for GLUT4, Akt, phospho-Akt (Ser^473), AMPK, and phospho-AMPK (Thr^172).

[7] = test system: membrane GLUT4; assay: Membrane GLUT4 expression in C2C12 cells (Western blotting); type: cell-based; conditions: AnK 1, 5, 10 and 25 μg/mL 30 min, insulin 100 nM 25 min, vs CON group
Experimental: as §4, §5
The C2C12 cells of the other group were homogenized in a homogenization buffer having a pH value of about 7.4 and containing 250 mM sucrose, 50 mM Tris, and 0.2 mM edetic acid (EDTA). […]
as §7, §8

[8] = test system: phospho-Akt (Ser^473)/total-Akt; assay: Akt phosphorylation in C2C12 cells (Western blotting); type: cell-based; conditions: AnK 1, 5, 10 and 25 μg/mL 30 min, insulin 100 nM 25 min, vs CON group
Experimental: as §4, §5, §6, §7, §8

| Compound | Adipocyte size [1] [μm^2] | Liver lipids total lipid [2] [mg/g] | Liver lipids triacylglycerol [2] [µmol/g] | Absolute tissue weight BAT [3] [g] | Absolute tissue weight EWAT [3] [g] | Absolute tissue weight Liver [3] [g] | Absolute tissue weight MWAT [3] [g] | Absolute tissue weight RWAT [3] [g] | Absolute tissue weight Skeletal muscle [3] [g] | Absolute tissue weight Spleen [3] [g] | Final body weight [3] [g] | Weight gain [3] [g] | Absolute tissue weight Visceral fat ([3]; sum of EWAT and RWAT) [g] | increase of membrane GLUT4 levels [4] [fold] | Hepatocellular ballooning Mean score [5] | expression ratio of phospho-AMPK (p-AMPK) to total-AMPK (t-AMPK) [6] | protein expression of membrane GLUT4 [7] | expression ratio of phospho-Akt (p-Akt) to total-Akt (t-Akt) [8] |
| --- | --- | --- | --- | --- | --- | --- | --- | --- | --- | --- | --- | --- | --- | --- | --- | --- | --- | --- |
| CC(C)OC(=O)C(C)(C)Oc1ccc(C(=O)c2ccc(Cl)cc2)cc1 [Feno, fenofibrate, reference compound] | 6304.2 ± 316.9 | 64.9 ± 5.1 | 47.3 ± 4.6 | 0.157 ± 0.013 | 0.603 ± 0.041 | 1.700 ± 0.070 | 0.247 ± 0.025 | 0.181 ± 0.020 | 0.428 ± 0.026 | 0.084 ± 0.005 | 27.55 ± 0.84 | 0.57 ± 0.55 | 0.784 ± 0.052 | 1.98 | 0.5 ± 0.1 | – | – | – |
| insulin [reference compound] | – | – | – | – | – | – | – | – | – | – | – | – | – | – | – | higher | enhanced | higher |
